Active and inactive are the calls of the source. Bounds are passed on as bounds.

Assay [1] addresses T1, RNA-binding protein pos-1 (Caenorhabditis elegans, UniProt G5EF15).
T1 sequence (G5EF15 whole entry): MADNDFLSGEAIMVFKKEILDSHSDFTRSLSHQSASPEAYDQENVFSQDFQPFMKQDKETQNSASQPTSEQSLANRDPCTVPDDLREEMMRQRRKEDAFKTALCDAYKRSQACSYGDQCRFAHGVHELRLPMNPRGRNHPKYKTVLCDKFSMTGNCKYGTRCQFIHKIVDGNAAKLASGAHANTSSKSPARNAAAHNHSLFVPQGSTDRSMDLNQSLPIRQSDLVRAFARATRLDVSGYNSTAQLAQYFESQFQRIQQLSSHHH
The assay can be described thus: inhibitors of POS-1/mex-3 RNA binding, dose response, biochemical, fluorescence polarization (AID 1964). (Polarisation of emitted light reports the rotation of a fluorescent probe.)

For another assay, the system named is HeLa. The assay can be described thus: HeLa cell cytotoxicity, dose response, cytotoxicity control, 24 h, cherry-picked samples (AID 504726).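 Further: potency for cytotoxicity as loss of luminescence signal.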 Type of assay: functional, cell-based. The following applies: Homo sapiens.
For a further assay, the target named is T2, fMet-Leu-Phe receptor (Homo sapiens, UniProt P21462).
T2 sequence (P21462 whole entry): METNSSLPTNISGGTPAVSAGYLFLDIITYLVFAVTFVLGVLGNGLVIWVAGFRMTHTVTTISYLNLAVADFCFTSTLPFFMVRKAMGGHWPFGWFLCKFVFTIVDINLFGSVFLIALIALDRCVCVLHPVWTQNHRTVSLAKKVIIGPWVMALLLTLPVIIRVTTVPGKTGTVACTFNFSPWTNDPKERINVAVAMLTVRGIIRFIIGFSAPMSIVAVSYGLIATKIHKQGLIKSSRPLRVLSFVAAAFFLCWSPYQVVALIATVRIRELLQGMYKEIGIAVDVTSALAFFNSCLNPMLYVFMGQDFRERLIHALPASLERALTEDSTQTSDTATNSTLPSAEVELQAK
Put plainly: FPR ligands, dose response (AID 519). Type of assay: functional.

Assay [2] deals with T3, Zinc finger protein mex-5 (Caenorhabditis elegans, UniProt Q9XUB2).
T3 sequence (Q9XUB2 whole entry): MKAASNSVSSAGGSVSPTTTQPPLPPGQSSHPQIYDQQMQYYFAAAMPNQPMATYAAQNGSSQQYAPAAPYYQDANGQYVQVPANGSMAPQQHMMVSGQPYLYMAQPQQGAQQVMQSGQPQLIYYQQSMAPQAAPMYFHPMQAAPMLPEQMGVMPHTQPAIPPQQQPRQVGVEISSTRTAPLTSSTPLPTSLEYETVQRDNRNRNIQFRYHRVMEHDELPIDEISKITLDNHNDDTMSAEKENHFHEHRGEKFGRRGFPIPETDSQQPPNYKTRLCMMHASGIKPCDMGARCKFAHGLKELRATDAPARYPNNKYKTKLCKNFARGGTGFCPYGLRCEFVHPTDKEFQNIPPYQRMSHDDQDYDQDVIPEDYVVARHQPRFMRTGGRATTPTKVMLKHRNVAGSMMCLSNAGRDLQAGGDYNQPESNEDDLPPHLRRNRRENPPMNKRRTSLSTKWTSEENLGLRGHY
Put plainly: MEX-5/TCR-2 RNA interaction inhibitors, dose response, biochemical, C. elegans, fluorescence polarization (AID 1960).

The target in another assay is T4, ORF 73 (Human herpesvirus 8, UniProt O40947).
T4 sequence (O40947 whole entry): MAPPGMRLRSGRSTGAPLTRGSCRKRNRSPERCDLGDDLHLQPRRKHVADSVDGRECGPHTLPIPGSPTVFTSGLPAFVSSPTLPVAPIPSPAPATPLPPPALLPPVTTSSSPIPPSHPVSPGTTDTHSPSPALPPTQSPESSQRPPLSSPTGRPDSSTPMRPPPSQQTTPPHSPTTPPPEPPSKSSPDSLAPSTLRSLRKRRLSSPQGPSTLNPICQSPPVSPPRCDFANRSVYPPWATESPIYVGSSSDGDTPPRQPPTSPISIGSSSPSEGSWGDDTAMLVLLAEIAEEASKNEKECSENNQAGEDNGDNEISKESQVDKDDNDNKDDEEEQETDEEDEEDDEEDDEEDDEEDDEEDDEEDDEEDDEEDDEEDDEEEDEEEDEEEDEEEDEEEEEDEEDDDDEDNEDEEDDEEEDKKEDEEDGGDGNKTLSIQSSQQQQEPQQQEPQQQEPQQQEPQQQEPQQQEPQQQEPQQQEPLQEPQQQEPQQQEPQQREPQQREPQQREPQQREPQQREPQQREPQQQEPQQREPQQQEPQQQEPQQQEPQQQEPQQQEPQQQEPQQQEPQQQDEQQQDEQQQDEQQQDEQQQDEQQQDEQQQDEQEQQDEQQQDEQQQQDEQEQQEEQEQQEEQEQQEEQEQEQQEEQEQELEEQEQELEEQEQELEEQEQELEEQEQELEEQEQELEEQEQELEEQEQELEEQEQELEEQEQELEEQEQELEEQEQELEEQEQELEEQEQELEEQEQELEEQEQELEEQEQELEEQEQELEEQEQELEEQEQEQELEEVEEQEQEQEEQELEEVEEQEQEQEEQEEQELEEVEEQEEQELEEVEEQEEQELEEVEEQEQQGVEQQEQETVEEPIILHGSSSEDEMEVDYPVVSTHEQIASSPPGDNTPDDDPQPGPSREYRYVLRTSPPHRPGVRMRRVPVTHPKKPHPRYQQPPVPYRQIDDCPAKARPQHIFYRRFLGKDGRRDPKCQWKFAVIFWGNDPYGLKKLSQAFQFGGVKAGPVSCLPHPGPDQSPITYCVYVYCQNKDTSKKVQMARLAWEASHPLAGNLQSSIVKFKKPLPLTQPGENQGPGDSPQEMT
Put plainly: inhibitors of C-LANA binding to LBS DNA, dose response, biochemical, fluorescence polarization, cherry-picked samples (AID 504725).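 Further: fluorescence polarization of a labeled DNA duplex reporting LANA DNA binding; potency is for inhibitors that block LANA binding to the DNA.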 Further details: species or system Human gammaherpesvirus 8.

A short description of assay [3]: cytotoxicity in HEK-293T cells, dose response, cytotoxicity control for BCR NF-kB inhibitor project, luminescence, B-cell screen hits (AID 489021).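 Further: HEK-293T cells carrying an NF-kB luciferase reporter; cells exposed to compound for about 14 hours before viability readout.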 It is filed as functional, cell-based.
For assay [4], the target named is Peroxisome proliferator-activated receptor gamma/Nuclear receptor coactivator 2 (Homo sapiens, UniProt P37231). Put plainly: TR-FRET dose response biochemical High Throughput Screening assay for agonists of the steroid receptor coactivator 2 (SRC-2) recruitment by the peroxisome proliferator-activated receptor gamma (PPAR gamma): non-selective agonists. [Related pubchem assays: 1297, 1032 ]. Type of assay: functional.

For assay [5], the target named is Peroxisome proliferator-activated receptor gamma/Nuclear receptor coactivator 3 (Homo sapiens, UniProt P37231). The assay can be described thus: TR-FRET dose response biochemical High Throughput Screening assay for agonists of the steroid receptor coactivator 3 (SRC-3) recruitment by the peroxisome proliferator-activated receptor gamma (PPAR gamma): non-selective agonists. [Related pubchem assays: 1301 (Confirmation screen.), 1048 (Primary screen.)]. It is filed as functional.

Assay [6] deals with Peroxisome proliferator-activated receptor gamma/Nuclear receptor coactivator 1 (Homo sapiens, UniProt P37231). Put plainly: TR-FRET dose response biochemical High Throughput Screening assay for agonists of the steroid receptor coactivator 1 (SRC-1) recruitment by the peroxisome proliferator-activated receptor gamma (PPAR gamma): non-selective agonists. [Related pubchem assays (depositor defined):AID1300, AID1808, AID504735, AID631]. It is filed as protein assay. (TR-FRET usually uses a lanthanide donor and a delayed reading to cut background.)

Assay [7] deals with T5, Carboxy-terminal domain RNA polymerase II polypeptide A small phosphatase 1 (Homo sapiens, UniProt Q9GZU7).
T5 sequence (Q9GZU7 whole entry): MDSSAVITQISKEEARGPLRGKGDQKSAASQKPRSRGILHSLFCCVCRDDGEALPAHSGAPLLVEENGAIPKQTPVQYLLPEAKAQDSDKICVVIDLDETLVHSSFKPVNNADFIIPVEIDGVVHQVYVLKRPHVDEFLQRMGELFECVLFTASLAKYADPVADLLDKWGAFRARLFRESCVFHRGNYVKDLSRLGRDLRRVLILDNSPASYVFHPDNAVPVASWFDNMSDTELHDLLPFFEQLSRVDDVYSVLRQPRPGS
The assay can be described thus: inhibitors of CTDSP1, concentration-response testing, biochemical assay, absorbance-based, actives from ultra-high-throughput screening (AID 540297). It is filed as functional.

Assay [8] has as its target Eukaryotic translation initiation factor 4E (Mus musculus, UniProt P63073). Put plainly: eIF4E–eIF4G protein interaction inhibitors, dose response, biochemical, TR-FRET (AID 855).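 Further: potency for disrupting eIF4E binding to eIF4GI seen as loss of FRET.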 It is filed as functional.

Peroxisome proliferator-activated receptor gamma/Nuclear receptor coactivator 1, sequence (P37231 whole entry): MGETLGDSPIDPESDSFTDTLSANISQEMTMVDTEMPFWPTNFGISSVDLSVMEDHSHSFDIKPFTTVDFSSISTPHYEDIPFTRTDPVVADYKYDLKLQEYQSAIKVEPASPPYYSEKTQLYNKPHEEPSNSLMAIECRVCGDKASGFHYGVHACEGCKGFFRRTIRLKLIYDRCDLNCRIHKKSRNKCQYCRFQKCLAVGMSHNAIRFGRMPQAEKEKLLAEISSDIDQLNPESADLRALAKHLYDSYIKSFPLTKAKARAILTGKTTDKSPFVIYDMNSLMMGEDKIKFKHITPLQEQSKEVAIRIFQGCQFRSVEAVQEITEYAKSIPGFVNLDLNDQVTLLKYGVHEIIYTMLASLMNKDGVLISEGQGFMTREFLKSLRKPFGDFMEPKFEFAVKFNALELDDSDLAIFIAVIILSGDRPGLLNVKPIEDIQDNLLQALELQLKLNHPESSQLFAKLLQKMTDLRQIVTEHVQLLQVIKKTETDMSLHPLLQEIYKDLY
Peroxisome proliferator-activated receptor gamma/Nuclear receptor coactivator 1, sequence (Q15788 whole entry, further chain): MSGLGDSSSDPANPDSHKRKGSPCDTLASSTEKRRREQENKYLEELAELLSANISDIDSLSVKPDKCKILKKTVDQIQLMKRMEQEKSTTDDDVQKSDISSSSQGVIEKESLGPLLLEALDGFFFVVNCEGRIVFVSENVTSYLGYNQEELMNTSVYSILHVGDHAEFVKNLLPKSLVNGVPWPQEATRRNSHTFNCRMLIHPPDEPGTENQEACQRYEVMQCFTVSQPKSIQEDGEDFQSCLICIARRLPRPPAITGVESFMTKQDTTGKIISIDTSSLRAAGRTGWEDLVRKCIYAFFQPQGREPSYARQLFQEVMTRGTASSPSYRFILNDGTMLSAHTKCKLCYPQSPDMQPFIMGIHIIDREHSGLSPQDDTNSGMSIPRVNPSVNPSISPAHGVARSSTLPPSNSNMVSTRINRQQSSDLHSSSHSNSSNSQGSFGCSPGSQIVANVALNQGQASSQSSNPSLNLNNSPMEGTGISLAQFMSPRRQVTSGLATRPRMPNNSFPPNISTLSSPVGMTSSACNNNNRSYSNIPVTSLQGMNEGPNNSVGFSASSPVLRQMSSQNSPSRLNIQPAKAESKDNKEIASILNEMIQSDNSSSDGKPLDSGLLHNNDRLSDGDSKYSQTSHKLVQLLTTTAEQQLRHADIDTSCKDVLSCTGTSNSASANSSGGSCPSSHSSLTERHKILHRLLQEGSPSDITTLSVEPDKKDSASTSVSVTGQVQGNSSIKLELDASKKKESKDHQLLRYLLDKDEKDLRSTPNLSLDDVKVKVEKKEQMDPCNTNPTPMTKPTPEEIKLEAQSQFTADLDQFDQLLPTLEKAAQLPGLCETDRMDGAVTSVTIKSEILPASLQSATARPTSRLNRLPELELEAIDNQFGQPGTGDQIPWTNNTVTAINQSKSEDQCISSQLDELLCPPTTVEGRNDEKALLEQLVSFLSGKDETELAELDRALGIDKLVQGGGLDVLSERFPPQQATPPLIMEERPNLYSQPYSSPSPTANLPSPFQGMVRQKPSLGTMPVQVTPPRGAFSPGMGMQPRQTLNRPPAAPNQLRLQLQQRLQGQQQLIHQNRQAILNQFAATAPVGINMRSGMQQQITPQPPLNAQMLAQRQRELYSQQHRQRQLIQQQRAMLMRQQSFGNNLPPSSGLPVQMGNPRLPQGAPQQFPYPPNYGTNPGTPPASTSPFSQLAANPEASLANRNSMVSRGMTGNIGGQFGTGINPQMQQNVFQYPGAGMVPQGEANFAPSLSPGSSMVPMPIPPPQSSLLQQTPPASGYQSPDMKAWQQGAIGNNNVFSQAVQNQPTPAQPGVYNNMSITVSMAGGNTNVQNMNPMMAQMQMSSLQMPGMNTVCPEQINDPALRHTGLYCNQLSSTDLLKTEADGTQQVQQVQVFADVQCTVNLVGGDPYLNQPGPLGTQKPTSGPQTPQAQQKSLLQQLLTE
Peroxisome proliferator-activated receptor gamma/Nuclear receptor coactivator 3, sequence (P37231 whole entry): as the sequence (P37231 whole entry) above
Peroxisome proliferator-activated receptor gamma/Nuclear receptor coactivator 3, sequence (Q9Y6Q9 whole entry, further chain): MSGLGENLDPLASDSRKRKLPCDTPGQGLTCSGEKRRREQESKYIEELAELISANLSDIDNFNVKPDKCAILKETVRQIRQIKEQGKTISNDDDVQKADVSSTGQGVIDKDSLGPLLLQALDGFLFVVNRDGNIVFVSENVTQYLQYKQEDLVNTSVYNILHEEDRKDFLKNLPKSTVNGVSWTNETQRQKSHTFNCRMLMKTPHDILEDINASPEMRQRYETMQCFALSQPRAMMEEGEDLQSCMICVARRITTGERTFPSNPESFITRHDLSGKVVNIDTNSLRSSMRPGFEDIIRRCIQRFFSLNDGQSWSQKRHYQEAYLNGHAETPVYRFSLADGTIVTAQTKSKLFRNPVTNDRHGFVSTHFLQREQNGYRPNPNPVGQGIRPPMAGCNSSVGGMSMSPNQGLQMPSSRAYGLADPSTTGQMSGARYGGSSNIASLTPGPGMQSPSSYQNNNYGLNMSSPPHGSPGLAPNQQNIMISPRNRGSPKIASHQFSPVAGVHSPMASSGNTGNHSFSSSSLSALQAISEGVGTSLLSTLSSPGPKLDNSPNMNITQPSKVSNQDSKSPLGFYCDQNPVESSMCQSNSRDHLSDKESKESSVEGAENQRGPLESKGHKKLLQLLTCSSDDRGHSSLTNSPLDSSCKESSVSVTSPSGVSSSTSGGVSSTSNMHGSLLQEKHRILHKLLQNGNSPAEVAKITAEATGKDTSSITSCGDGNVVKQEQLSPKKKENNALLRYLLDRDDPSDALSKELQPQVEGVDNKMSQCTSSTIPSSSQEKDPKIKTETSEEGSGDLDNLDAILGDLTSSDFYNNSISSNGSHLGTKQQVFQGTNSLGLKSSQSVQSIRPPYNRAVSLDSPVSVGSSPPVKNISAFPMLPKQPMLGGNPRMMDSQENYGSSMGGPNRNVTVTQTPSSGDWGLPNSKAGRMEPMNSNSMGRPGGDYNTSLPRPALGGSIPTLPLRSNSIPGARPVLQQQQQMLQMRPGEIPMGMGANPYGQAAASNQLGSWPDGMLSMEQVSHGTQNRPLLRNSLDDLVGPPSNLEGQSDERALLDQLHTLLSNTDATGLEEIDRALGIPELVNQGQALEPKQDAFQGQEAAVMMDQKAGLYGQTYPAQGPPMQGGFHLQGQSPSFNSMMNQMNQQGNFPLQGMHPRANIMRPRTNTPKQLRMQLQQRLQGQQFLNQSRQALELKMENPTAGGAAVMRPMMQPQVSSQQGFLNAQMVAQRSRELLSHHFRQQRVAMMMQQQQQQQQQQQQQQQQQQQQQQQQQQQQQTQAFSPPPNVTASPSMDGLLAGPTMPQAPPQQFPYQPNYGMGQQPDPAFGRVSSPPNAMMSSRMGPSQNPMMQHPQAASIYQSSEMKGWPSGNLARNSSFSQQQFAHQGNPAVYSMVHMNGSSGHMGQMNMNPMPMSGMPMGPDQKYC
Eukaryotic translation initiation factor 4E, sequence (P63073 whole entry): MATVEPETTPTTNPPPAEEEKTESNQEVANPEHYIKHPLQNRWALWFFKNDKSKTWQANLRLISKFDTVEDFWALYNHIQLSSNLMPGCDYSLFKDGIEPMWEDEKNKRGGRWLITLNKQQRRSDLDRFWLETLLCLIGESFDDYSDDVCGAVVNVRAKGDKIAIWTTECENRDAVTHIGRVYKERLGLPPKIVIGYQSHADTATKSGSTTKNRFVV

Regarding `COc1ccc(C2C(C(=O)c3cccs3)=C(O)C(=O)N2c2nnc(C)s2)cc1OC` (centres undefined), the figures for the EC50 in assay [1] and in assay [2] were 7.2 µM (active) and 5.19 µM (active), respectively. Moreover, the AC50 in the assay with HeLa is > 350 µM (inactive); on ORF 73 it was 17.5 µM (active). Moreover, the Ki on fMet-Leu-Phe receptor was > 66.7 µM (inactive).

As to `CCOC(=O)N1CCN(CC(=O)Nc2ccc([N+](=O)[O-])cc2C(=O)Nc2ccccc2F)CC1`, the IC50 in assay [3] was 51.6 µM (inactive).

For `CCn1c(=O)cc(SCC(=O)N2CCN(C(=O)c3ccco3)CC2)c2ccccc21`, the EC50 in assay [4] was > 79.4 µM (not active); in assay [5] it was > 79.4 µM (not active); in assay [6], > 79.4 µM (inactive). For the same compound, the IC50 in assay [3] was > 80 µM (inactive).

For `COc1ccc(-c2noc(N3CCC(C(=O)Nc4cccc(OC)c4)CC3)n2)cc1`, the IC50 in [3] is > 80 µM (inactive).

Take `COc1ccc(-c2ccc(N(C)C)cc2)cc1[C@H]1[C@H]2C=CC[C@@H](C)[C@@H]2C(=O)N1Cc1ccccc1`: the IC50 in [3] is > 80 µM (inactive).

With `COc1ccc(OC)c(NC(=O)COC(=O)c2cc3c(s2)CCC3)c1`, the results for the IC50 in [7] and in assay [8] were 2.39 µM (active) and 50 µM (inactive), respectively.

Usually EC50 stands for the concentration giving half of the maximal effect. A word on the AC50: it is the concentration giving half of the maximal activity seen. Usually Ki stands for the equilibrium dissociation constant of an inhibitor or competing ligand from its target. As a reminder, the IC50 is the midpoint of a concentration-inhibition curve.

The values are drawn from ChEMBL document CHEMBL1201862, “PubChem BioAssay data set” (2004).
